Holding throughout (type): cell-based, mice
Experiment [1] concerns EpiSC-derived OPCs. Nature of the experiment: Modulation of OPC differentiation by extrinsic factors in T3 differentiation medium. The procedure: (§1) For differentiation of OPCs into oligodendrocytes, cells were plated at 2.2×10^4 cells cm^−2 and induced with neural base medium supplemented with 0.4 ng ml^−1 T3 (Sigma-Aldrich, St. Louis, Mo.), 200 ng ml^−1 SHH, 100 ng ml^−1 noggin, 10 μM dibutyryl cyclic-AMP sodium salt, 100 ng ml^−1 IGF-1 and 10 ng ml^−1 NT3. Attempts to modulate the outcome of this differentiation paradigm included treatments with Jag1 (R&D Systems, Minneapolis, Minn.), CHIR99021 (Stemgent, San Diego, Calif.), LIF (Millipore, Billerica, Mass.) and/or BMP4 (R&D Systems, Minneapolis, Minn.).
Next, the ability of extrinsic factors to modulate the differentiation of Epi-SC-derived OPCs was explored. […] As a simple proof-of-principle for using the system to screen for compounds, EpiSC-derived OPCs were exposed to three different treatment regimens involving modulation of signaling pathways (Notch, Wnt-β-catenin and BMP) previously implicated in oligodendrocyte development or differentiation. […] Using a similar protocol, the role of GSK3β, a negative regulator of Wnt-β-catenin signaling, was tested by treating EpiSC-derived OPCs with the GSK3β inhibitor CHIR99021.

The test system of experiment [2] is EpiSC-derived OPCs. The experiment can be described thus: Respecification of EpiSC-derived OPCs into astrocytes. Particulars: combined treatment with BMP4 and LIF; majority of cells. The procedure:
as §1
The final treatment involved exposure of EpiSC-derived OPCs to signaling cascades known to respecify OPCs in vitro into an alternate glial fate, astrocytes.

Experiment [3] deals with EpiSC-derived OPCs. Nature of the experiment: Differentiation of EpiSC-derived OPCs into oligodendrocytes. The following applies: day 2 of differentiation, absence of FGF2 and PDGF-AA, n>480 cells. The procedure: as §1
Live-cell staining was used for the cell-surface marker O4. Live cells were blocked with 10% normal goat serum and treated with O4 antibody for 20 min at 37° C. Cells were gently rinsed three times with warm neural base medium and fixed in 4% paraformaldehyde. […]
To determine the differentiation capacity of the EpiSC-derived OPCs, the EpiSc-derived OPCs were treated with thyroid hormone (T3), which is known to be important both in vitro and in vivo in regulating the transition of OPCs into oligodendrocytes, in the absence of both FGF2 and PDGF-AA. […] By day 4, the overwhelming majority of EpiSC-derived OPCs had become oligodendrocytes, though cell death and rare proliferation events made exact quantification challenging without large-scale time-lapse lineage analysis. […]

For experiment [4], the system named is EpiSC-derived patterned neuroectoderm. Nature of the experiment: Region-specific patterning of EpiSC-derived neuroectoderm. The following applies: Day-4 neuroectoderm treated 1 day with retinoic acid and SHH in continued presence of noggin (combined).
Experimental: On day 4, cultures were fed with neural base medium supplemented with 100 ng ml^−1 noggin, 10 μM retinoic acid (Sigma-Aldrich, St. Louis, Mo.; maintained as a 20 mM stock solution in DMSO) and 200 ng ml^−1 SHH (R&D Systems; C24II). To test whether the induced patterned neuroectoderm behaved as un-induced neuroectoderm behaves, the induced EpiSC-derived patterned neuroectoderm were patterned in a region-specific manner. […] Day-4 EpiSC-derived patterned neuroectoderm was treated for 1 day with specific concentrations of retinoic acid and SHH in the continued presence of noggin to pattern them in a region-specific way.

Regarding `Cc1c[nH]c(-c2cnc(NCCNc3ccc(C#N)cn3)nc2-c2ccc(Cl)cc2Cl)n1` [CHIR99021], the “expression of mature oligodendrocyte markers” value in experiment [1] (FIG. 5, treatment of OPCs) was “suppression”. Further, the “oligodendrocyte differentiation (progression of Olig2+ OPCs to O4+ oligodendrocytes)” value in experiment [1] (T3 differentiation medium, FIG. 5) is recorded as “concentration-dependent inhibition”.

Take “Jagged1: the Notch ligand Jagged1 (Jag1)”: in experiment [1] (2 days, T3 differentiation medium), the “rate or number of O4+ oligodendrocytes” value is “did not impact”.

For the molecule “LIF: leukemia inhibitory factor, activator of JAK/STAT pathways”, in experiment [2], the “respecification into astrocytes (morphological and gene expression changes)” value was “upregulation of GFAP”.

Regarding `N[C@@H](Cc1cc(I)c(Oc2ccc(O)c(I)c2)c(I)c1)C(=O)O` [T3, triiodothyronine], the “cells strongly O4+ with multiprocessed morphology” value in experiment [3] is given as “greater than 64%”.

B1: noggin: a BMP antagonist; secreted polypeptide encoded by the NOG gene (protein, UniProt Q13253 28-232, looked up)
Noggin: QHYLHIRPAPSDNLPLVDLIEHPDPIFDPKEKDLNETLLRSLLGGHYDPGFMATSPPEDRPGGGGGAAGGAEDLAELDQLLRQRPSGAMPSEIKGLEFSEGLAQGKKQRLSKKLRRKLQMWLWSQTFCPVLYAWNDLGSRFWPRYVKVGSCFSKRSCSVPEGMVCKPSKSVHLTVLRWRCQRRGGQRCGWIPIQYPIISECKCSC
Take B1: the “expression of OPC-relevant transcription factors Olig2 and Nkx2.2” value in experiment [4] was “upregulation”.

B2: BMP4: bone morphogenetic protein 4, ligand of the TGF beta superfamily (protein, UniProt P12644 293-408, looked up)
Bone morphogenetic protein 4: SPKHHSQRARKKNKNCRRHSLYVDFSDVGWNDWIVAPPGYQAFYCHGDCPFPLADHLNSTNHAIVQTLVNSVNSSIPKACCVPTELSAISMLYLDEYDKVVLKNYQEMVVEGCGCR
As for B2, the “respecification into astrocytes (morphological and gene expression changes)” value in experiment [2] is reported as “upregulation of GFAP”.

These data come from US9193951B2, “Differentiation method for production of glial cell populations” (Case Western Reserve University, priority 2010, dated 2015).
